# From patent US9169195B2, “Amides, use of amides as solvents for organic compounds, compositions and emulsions containing amides, and method for treating a plant” (AKZO NOBEL CHEMICALS INTERNATIONAL B.V., priority 2009, dated 2015)
# Test: Emulsion dilution: crystallisation of tebuconazole in emulsions, ocular inspection
# Assay type: physicochemical
# Design: key: +: no crystals visible; −: crystals visible
# Conditions: 5° C.
# Description: Formulations containing 250 g/l of tebuconazole was formulated together with 100 g/l of surfactant blend (CaDDBS and tristyrylphenol ethoxylate (15 EO), 50:50) and diluted to a final volume of one liter with each one of the solvents N,N-dimethyl decanamide, N-methyl-N-octyl propanamide, N-methyl-N-(2-propylheptyl) formamide or N-methyl-N-(n-decyl) formamide. Each formulation was emulsified into tap water at ambient temperature (˜22° C.) in the volume ratio (formulation:water) 1:100, 1:150, 1:200 and 1:500 dilution. The emulsions were poured into 100 ml conical glass centrifuge tubes and monitored over time at three different temperatures 5, 20 and 40° C. for observation of crystallisation of active ingredient (tebuconazole).
# Crystallization was judged by ocular inspection with the naked eye, and in the table below, the following is used: […]
# [1] = 3 h, formulation:tap water 1:100, 250 g/l tebuconazole
# [2] = 3 h, formulation:tap water 1:150, 250 g/l tebuconazole
# [3] = 3 h, formulation:tap water 1:200, 250 g/l tebuconazole
# [4] = 3 h, formulation:tap water 1:500, 250 g/l tebuconazole
# [5] = 6 h, formulation:tap water 1:100, 250 g/l tebuconazole
# [6] = 6 h, formulation:tap water 1:150, 250 g/l tebuconazole
# [7] = 6 h, formulation:tap water 1:200, 250 g/l tebuconazole
# [8] = 6 h, formulation:tap water 1:500, 250 g/l tebuconazole
# [9] = 12 h, formulation:tap water 1:100, 250 g/l tebuconazole
# [10] = 12 h, formulation:tap water 1:150, 250 g/l tebuconazole
# [11] = 12 h, formulation:tap water 1:200, 250 g/l tebuconazole
# [12] = 12 h, formulation:tap water 1:500, 250 g/l tebuconazole
# [13] = 24 h, formulation:tap water 1:100, 250 g/l tebuconazole
# [14] = 24 h, formulation:tap water 1:150, 250 g/l tebuconazole
# [15] = 24 h, formulation:tap water 1:200, 250 g/l tebuconazole
# [16] = 24 h, formulation:tap water 1:500, 250 g/l tebuconazole
# [17] = 36 h, formulation:tap water 1:100, 250 g/l tebuconazole
# [18] = 36 h, formulation:tap water 1:150, 250 g/l tebuconazole
# [19] = 36 h, formulation:tap water 1:200, 250 g/l tebuconazole
# [20] = 36 h, formulation:tap water 1:500, 250 g/l tebuconazole
# [21] = 48 h, formulation:tap water 1:100, 250 g/l tebuconazole
# [22] = 48 h, formulation:tap water 1:150, 250 g/l tebuconazole
# [23] = 48 h, formulation:tap water 1:200, 250 g/l tebuconazole
# [24] = 48 h, formulation:tap water 1:500, 250 g/l tebuconazole
# [25] = 72 h, formulation:tap water 1:100, 250 g/l tebuconazole
# [26] = 72 h, formulation:tap water 1:150, 250 g/l tebuconazole
# [27] = 72 h, formulation:tap water 1:200, 250 g/l tebuconazole
# [28] = 72 h, formulation:tap water 1:500, 250 g/l tebuconazole
# [29] = 96 h, formulation:tap water 1:100, 250 g/l tebuconazole
# [30] = 96 h, formulation:tap water 1:150, 250 g/l tebuconazole
# [31] = 96 h, formulation:tap water 1:200, 250 g/l tebuconazole
# [32] = 96 h, formulation:tap water 1:500, 250 g/l tebuconazole
Compound,Crystallisation of tebuconazole in emulsion [1],Crystallisation of tebuconazole in emulsion [2],Crystallisation of tebuconazole in emulsion [3],Crystallisation of tebuconazole in emulsion [4],Crystallisation of tebuconazole in emulsion [5],Crystallisation of tebuconazole in emulsion [6],Crystallisation of tebuconazole in emulsion [7],Crystallisation of tebuconazole in emulsion [8],Crystallisation of tebuconazole in emulsion [9],Crystallisation of tebuconazole in emulsion [10],Crystallisation of tebuconazole in emulsion [11],Crystallisation of tebuconazole in emulsion [12],Crystallisation of tebuconazole in emulsion [13],Crystallisation of tebuconazole in emulsion [14],Crystallisation of tebuconazole in emulsion [15],Crystallisation of tebuconazole in emulsion [16],Crystallisation of tebuconazole in emulsion [17],Crystallisation of tebuconazole in emulsion [18],Crystallisation of tebuconazole in emulsion [19],Crystallisation of tebuconazole in emulsion [20],further results
"CCCCCCCCCC(=O)N(C)C [N,N-dimethyl decanamide]",+,+,+,+,+,+,+,−,+,+,−,−,+,−,−,−,+,−,−,−,Crystallisation of tebuconazole in emulsion [21]: +; Crystallisation of tebuconazole in emulsion [22]: −; Crystallisation of tebuconazole in emulsion [23]: −; Crystallisation of tebuconazole in emulsion [24]: −; Crystallisation of tebuconazole in emulsion [25]: +; Crystallisation of tebuconazole in emulsion [26]: −; Crystallisation of tebuconazole in emulsion [27]: −; Crystallisation of tebuconazole in emulsion [28]: −; Crystallisation of tebuconazole in emulsion [29]: +; Crystallisation of tebuconazole in emulsion [30]: −; Crystallisation of tebuconazole in emulsion [31]: −; Crystallisation of tebuconazole in emulsion [32]: −
"CCCCCC(CCC)CN(C)C=O (centres unmarked) [N-methyl-N-(2-propylheptyl) formamide, N-methyl-N-(2-propylheptyl)-formamide]",+,+,+,+,+,+,+,+,+,+,+,+,+,+,+,+,+,+,+,+,Crystallisation of tebuconazole in emulsion [21]: +; Crystallisation of tebuconazole in emulsion [22]: +; Crystallisation of tebuconazole in emulsion [23]: +; Crystallisation of tebuconazole in emulsion [24]: +; Crystallisation of tebuconazole in emulsion [25]: +; Crystallisation of tebuconazole in emulsion [26]: +; Crystallisation of tebuconazole in emulsion [27]: +; Crystallisation of tebuconazole in emulsion [28]: +; Crystallisation of tebuconazole in emulsion [29]: +; Crystallisation of tebuconazole in emulsion [30]: +; Crystallisation of tebuconazole in emulsion [31]: +; Crystallisation of tebuconazole in emulsion [32]: +
CCCCCCCCCCN(C)C=O [N-methyl-N-(n-decyl) formamide],+,+,+,+,+,+,+,+,+,+,+,+,+,+,+,+,+,+,+,+,Crystallisation of tebuconazole in emulsion [21]: +; Crystallisation of tebuconazole in emulsion [22]: +; Crystallisation of tebuconazole in emulsion [23]: +; Crystallisation of tebuconazole in emulsion [24]: +; Crystallisation of tebuconazole in emulsion [25]: +; Crystallisation of tebuconazole in emulsion [26]: +; Crystallisation of tebuconazole in emulsion [27]: +; Crystallisation of tebuconazole in emulsion [28]: +; Crystallisation of tebuconazole in emulsion [29]: +; Crystallisation of tebuconazole in emulsion [30]: +; Crystallisation of tebuconazole in emulsion [31]: +; Crystallisation of tebuconazole in emulsion [32]: +
CCCCCCCCN(C)C(=O)CC [N-methyl-N-octyl propanamide],+,+,+,+,+,+,+,−,+,+,−,−,+,+,−,−,+,+,−,−,Crystallisation of tebuconazole in emulsion [21]: +; Crystallisation of tebuconazole in emulsion [22]: −; Crystallisation of tebuconazole in emulsion [23]: −; Crystallisation of tebuconazole in emulsion [24]: −; Crystallisation of tebuconazole in emulsion [25]: +; Crystallisation of tebuconazole in emulsion [26]: −; Crystallisation of tebuconazole in emulsion [27]: −; Crystallisation of tebuconazole in emulsion [28]: −; Crystallisation of tebuconazole in emulsion [29]: +; Crystallisation of tebuconazole in emulsion [30]: −; Crystallisation of tebuconazole in emulsion [31]: −; Crystallisation of tebuconazole in emulsion [32]: −
